# From patent US20060128613A1, “Melanocortin receptor ligands” (The Procter & Gamble Company, priority 2003, published 2006)
# Assay: Composition and Method Examples A-E: treatment of obese human subjects to incur or maintain weight loss
# Format: in vivo
# Description: An obese human subject weighing 130 kg is treated by this method to incur weight loss. Specifically, once each day for a period of 6 months, the subject is administered, via intravenous injection, 15 ml of an aqueous solution comprising the following:
# An obese human subject weighing 150 kg is subjected to a weight-reduction program that achieves weight loss with reduced adiposity through a combination of a restricted diet and increased exercise. Specifically, once each day for a period of 6 months after weight loss, the subject is administered, via intravenous injection, 15 ml of an aqueous solution comprising the following:
# An obese human subject weighing 165 kg is subjected to a weight reduction program that achieves weight loss through a combination of restricted diet, increased exercise and subcutaneous injection daily of 15 mls of an aqueous solution comprising:
# Once the desired weight loss has been achieved, the patient's weight loss is maintained through continuation of the intravenous injection once each day for an additional period of 6 months.
# An obese human subject weighing 140 kg is treated by the present method to incur weight loss. Specifically, they are treated with an implantable subcutaneous pump that delivers 0.1 mg/kg of the compound of Example 31 over a 24 hour period. The pump contains a solution of the compound dissolved in a solution of 50% propylene glycol and 50% sterile water.
# An obese person weighing 150 kg is treated by this method to incur weight loss. Specifically, they are treated with an oral tablet taken twice daily containing 300 mg of the compound in Example 29.
substance,measurement,setting,value
Ac—YfRW—NH2 [Example 1],weight loss at the end of the treatment period,"Example A: obese human 130 kg, intravenous injection once each day for 6 months, 15 ml aqueous solution, 5 mg/ml",measurable weight loss
3-(4-OHPh)propanoyl-(4-F-f)RW—NH2 [Example 88],maintained weight loss and adiposity at the end of the treatment period,"Example C: obese human 165 kg, diet, exercise and daily subcutaneous injection of 15 ml, 5 mg/ml, then injection once each day for additional 6 months",maintained weight loss and reduced adiposity
Ac—YfHW—NH2 [Example 9],maintenance of weight loss and adiposity at the end of the treatment period,"Example B: obese human 150 kg after diet and exercise weight loss, intravenous injection once each day for 6 months, 15 ml, 5 mg/ml",maintenance of weight loss and reduced adiposity
Ac-(L-4-Chloro-Phe)(D-4-Fluoro-Phe)RW—NH2 [Example 29],weight loss and adiposity after 12 months treatment,"Example E: obese person 150 kg, oral tablet 300 mg twice daily, 12 months",weight loss and reduced adiposity
Ac-(L-4-Chloro-Phe)fRW(N-Me-Gly)-NH2 [Example 31],weight loss and adiposity after six-month treatment,"Example D: obese human 140 kg, implantable subcutaneous pump delivering 0.1 mg/kg over 24 hours, six months",weight loss and reduced adiposity
